Measured values: patent publication EP0116444A2, “Improvements in or relating to benzazepine derivatives” (ELI LILLY AND COMPANY, priority 1983, dated 1984)
Where a name gives a salt, the structure may show the parent alone. Read-outs that look alike come from different tables or passages of the source.

Tested on: spontaneously hypertensive rats
Assay: Determination of antihypertensive activity (blood pressure and heart rate) in anesthetized spontaneously hypertensive rats
Assay type: in vivo
Details: 10 mg./kg. i.p. in aqueous solution, anesthetized spontaneously hypertensive male rats, average of two or more experiments; for change in vivo at 10 mg/kg: Rattus norvegicus, ip
Procedure: Spontaneously hypertensive male rats were anesthetized with methoxyflurane and α-chloralose (120 mg./kg., i.v.). An aqueous solution of the compound of formula I to be tested was administered i.p. to the animal following a 15-20 minute equilibrium period. Systemic arterial blood pressure was measured from the right carotid artery via a Statham P23 ID pressure transducer and recorded on a Model R411 Beckman Dynograph recorder. Heart rate was recorded with a Beckman 9857B cardiotachometer triggered by the pulse pressure. Mean arterial pressure was calculated as the diastolic pressure plus one third of the pulse pressure. Antihypertensive responses were measured at the maximal reduction in blood pressure occurring within 30 minutes after drug administration as compared to the baseline measurements taken prior to administration of the compound. The effect on heart rate was determined at the same time the maximum reduction in blood pressure was seen and was also compared with the baseline heart rate prior to compound administration. The results in Table I are reported as the maximal reduction in blood pressure and the corresponding effect on heart rate for certain compounds of formula I. The results are the average of two or more experiments.

[1] = heart rate at the time of maximum reduction in blood pressure vs pre-treatment baseline, minus = decrease
[2] = maximal reduction in mean arterial blood pressure within 30 minutes of compound administration vs pre-treatment baseline, minus = reduction
[3] = maximal reduction in mean arterial blood pressure within 30 minutes of compound administration vs pre-treatment baseline, minus = reduction, read-out: Effect on blood pressure
[4] = heart rate at the time of maximum reduction in blood pressure vs pre-treatment baseline, minus = decrease, read-out: Effect on heart rate

Molecule	Effect on heart rate [1] [%]	Effect on blood pressure [2] [%]	change in vivo at 10 mg/kg [3] [%]	change in vivo at 10 mg/kg [4] [%]
2-Amino-7,8-dimethoxy-lH-3-benzazepine [Example 5]	-21.0	-43.0	–	–
2-Amino-7,8-dimethoxy-lH-3-benzazepine hydrochloride [Example 6]	-15.0	-56.0	–	–
CCc1cc2c(cc1CC)CC(N)=NC=C2 [Example 1, 2-Amino-7,8-diethyl-1H-3-benzazepine hydrochloride]	–	–	-24	–
Cc1cc2c(cc1C)CC(N)=NC=C2 [Example 2, 2-Amino-7,8-dimethyl-lH-3-benzazepine hydrochloride]	–	–	-46.7	-21.7
NC1=NC=Cc2cc3ccccc3cc2C1 [Example 3, 2-Amino-lH-naphth[2,3-d]azepine]	–	–	-31	-20
COc1ccc2c(c1)CC(N)=NC=C2 [Example 4, 2-Amino-8-methoxy-1H-3-benzazepine hydrochloride]	–	–	-29.5	-23.5
CCOc1cc2c(cc1OC)CC(N)=NC=C2 [Example 7, 2-Amino-7-ethoxy-8-methoxy-lH-3-benzazepine hydrochloride]	–	–	-36	-3
COc1cc2c(cc1C)CC(N)=NC=C2 [Example 8, 2-Amino-7-methoxy-8-methyl-1H-3-benzazepine hydrochloride]	–	–	-54	-31
NC1=NC=Cc2cc3c(cc2C1)OCO3 [Example 9, 2-Amino-7,8-(methylenedioxy)-lH-3-benzazepine hydrochloride]	–	–	-19	-11
NC1=NC=Cc2ccc([N+](=O)[O-])cc2C1 [Example 10, 2-Amino-8-nitro-lH-3-benzazepine]	–	–	-55	-22
CNC1=NC=Cc2cc(OC)c(OC)cc2C1 [Example 11, 2-Methylamino-7,8-dimethoxy-lH-3-benzazepine]	–	–	-36	-7
COc1cc2c(cc1OC)CC(NC1CC1)=NC=C2.Cl [Example 12, 2-Cyclopropylamino-7,8-dimethoxy-lH-3-benzazepine hydrochloride]	-8.0	-25.0	–	–
COc1cc2c(cc1OC)C(C)C(N)=NC=C2 (stereo not drawn) [Example 13, 1-Methyl-2-amino-7,8-dimethoxy-1H-3-benzazepine hydrochloride]	–	–	-22	-2
CCOc1cc2c(cc1OCC)CC(N)=NC=C2 [Example 14, 2-Amino-7,8-diethoxy-lH-3-benzazepine hydrochloride]	–	–	-18	-8
COc1cc2c(cc1OC)CC(NC(C)C)=NC=C2 [Example 15, 2-Isopropylamino-7,8-dimethoxy-lH-3-benzazepine hydrochloride]	–	–	-10	-3
CNC1=NC=Cc2ccccc2C1 [Example 16, 2-Methylamino-1H-3-benzazepine]	–	–	-8	-9
CCC(C)NC1=NC=Cc2ccccc2C1 (stereo not drawn) [Example 17, 2-Sec-butylamino-lH-3-benzazepine]	–	–	-22	-13
CC(C)CNC1=NC=Cc2ccccc2C1 [Example 18, 2-Isobutylamino-lE-3-benzazepine]	–	–	-17	-7
C1=Cc2ccccc2CC(NC2CC2)=N1 [Example 19, 2-Cyclopropylamino-lH-3-benzazepine]	–	–	-20	-8

Molecule	Effect on heart rate [1] [%]	Effect on blood pressure [2] [%]	change in vivo at 10 mg/kg [3] [%]	change in vivo at 10 mg/kg [4] [%]
C=CCNC1=NC=Cc2ccccc2C1 [Example 20, 2-Allylamino-lE-3-benzazepine]	–	–	-20	-15
CC(C)NC1=NC=Cc2ccccc2C1 [Example 21, 2-Isopropylamino-lH-3-benzazepine]	–	–	-16	-6
CCNC1=NC=Cc2cc(OC)c(OC)cc2C1 [Example 22, 2-Ethylamino-7,8-dimethoxy-lH-3-benzazepine]	–	–	-13	2
C=CCNC1=NC=Cc2cc(OC)c(OC)cc2C1 [Example 23, 2-Allylamino-7,8-dimethoxy-lH-3-benzazepine]	–	–	-15	-5
Cc1ccc2c(c1)CC(N)=NC=C2 [Example 24, 2-Amino-8-methyl-lH-3-benzazepine]	–	–	-35	-22
CCOc1cc2c(cc1OC)CC(NC1CC1)=NC=C2 [Example 25, 2-Cyclopropylamino-7-ethoxy-8-methoxy-lH-3-benzazepine hydrochloride]	–	–	-9	-6
Cc1ccc(C)c2c1C=CN=C(N)C2 [Example 26, 2-Amino-6,9-dimethyl-lH-3-benzazepine hydrochloride]	–	–	-44	–
COc1cc2c(cc1O)CC(N)=NC=C2 [Example 27, 2-Amino-7-methoxy-8-hydroxy-lE-3-benzazepine hydrochloride]	–	–	-29	-12
COc1cc2c(cc1O)C=CN=C(N)C2 [Example 28, 2-Amino-7-hydroxy-8-methoxy-1H-3-benzazepine hydrochloride]	–	–	-11	0
C#CCNC1=NC=Cc2cc(OC)c(OC)cc2C1 [Example 29, 2-Propargylamino-7,8-dimethoxy-lH-3-benzazepine hydrochloride]	–	–	-29	-11
NC1=NC=Cc2ccc3ccccc3c2C1 [Example 30, 2-Amino-1H-naphth[1,2-d]azepine hydrochloride]	–	–	-37	-6
NC1=NC=Cc2cc3c(cc2C1)CCC3 [Example 31, 2-Amino-1,7,8,9-tetrahydroindeno[5,6-d]-azepine hydrochloride]	–	–	-40	-16
COc1ccc(OC)c2c1C=CN=C(N)C2 [Example 32, 2-Amino-6,9-dimethoxy-lH-3-benzazepine hydrochloride]	–	–	-32	-13
COc1cc(C)c(OC)c2c1CC(N)=NC=C2 [Example 33, 2-Amino-7-methyl-6,9-dimethoxy-lH-3-benzazepine hydrochloride]	–	–	-47	-43
NC1=NC=Cc2cc3c(cc2C1)CCCC3 [Example 34, 2-Amino-7,8,9,10-tetrahydro-1H-naphth[2,3-d]-azepine hydrochloride]	–	–	-30	-15
NC1=NC=Cc2ccc3c(c2C1)CCCC3 [Example 35, 2-amino-8,9,10,11-tetra-hydro-lH-naphth[1,2-d]azepine hydrochloride]	–	–	-33	-12
COc1cc2c(cc1F)CC(N)=NC=C2 [Example 36, 2-Amino-8-fluoro-7-methoxy-1H-3-benzazepine hydrochloride]	–	–	-31	-8
CCOc1cc2c(cc1OC)C=CN=C(N)C2 [Example 37, 2-Amino-8-ethoxy-7-methoxy-lH-3-benzazepine hydrochloride]	–	–	-48	-23
